In patent US9556201B2, “Bicyclic pyridines and analogs as sirtuin modulators” (GLAXOSMITHKLINE LLC, priority 2009, dated 2017) one finds Emax, EC1.5 and EC1.5 (concentration giving 1.5-fold activation) data, which are given here for 42 molecules.

This assay concerns the target T1, SIRT1 (Homo sapiens, UniProt Q96EB6).
T1 sequence (Q96EB6 1-747): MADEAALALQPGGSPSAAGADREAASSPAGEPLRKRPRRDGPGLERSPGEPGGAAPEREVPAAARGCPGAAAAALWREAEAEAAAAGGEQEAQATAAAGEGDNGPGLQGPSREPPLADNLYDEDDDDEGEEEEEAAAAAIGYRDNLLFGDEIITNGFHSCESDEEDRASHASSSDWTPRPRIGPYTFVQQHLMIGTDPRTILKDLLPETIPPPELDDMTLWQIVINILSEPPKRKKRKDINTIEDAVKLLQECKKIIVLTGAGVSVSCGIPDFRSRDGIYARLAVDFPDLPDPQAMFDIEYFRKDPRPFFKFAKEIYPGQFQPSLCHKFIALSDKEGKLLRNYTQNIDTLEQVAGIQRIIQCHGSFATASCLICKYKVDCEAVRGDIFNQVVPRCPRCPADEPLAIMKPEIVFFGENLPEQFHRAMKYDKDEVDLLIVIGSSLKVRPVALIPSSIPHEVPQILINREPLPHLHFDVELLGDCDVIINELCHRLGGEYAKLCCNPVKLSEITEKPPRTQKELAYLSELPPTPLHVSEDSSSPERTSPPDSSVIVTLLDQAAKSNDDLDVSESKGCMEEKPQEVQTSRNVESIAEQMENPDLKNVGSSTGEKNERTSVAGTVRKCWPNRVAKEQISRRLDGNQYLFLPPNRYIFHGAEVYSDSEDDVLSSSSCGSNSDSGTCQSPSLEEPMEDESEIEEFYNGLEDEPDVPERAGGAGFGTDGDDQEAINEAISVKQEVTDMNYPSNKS
Kind of assay: Mass spectrometry based assay to identify modulators of SIRT1 activity (deacetylation of p53-based acetylated peptide substrate). The format is biochemical. Conditions: for Emax: 25 min, read-out: % FOLD ACT. (percent maximum fold activation); for Emax / EC1.5: SIRT1 activation. A digest of the protocol:
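Deacetylation of a modified p53 acetyl-lysine peptide ([…], 5TMR-labelled, Nle for Met) by 10 nM N-His SIRT1 with 120 μM βNAD+, pH 8, 25 min, 25 °C. Substrate and product masses measured by MS after formic acid quench; nicotinamide defines maximal inhibition.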

As for `Cc1cc(-c2ccc3c(n2)N(C(=O)Nc2ccncn2)CCCO3)ccn1` [Compound 674], the Emax was over 200% and the EC1.5 entry is recorded as “B (EC1.5 1-25 μM)”.
`Cc1cc(-c2ccc3c(n2)N(C(=O)Nc2nc(C)cs2)CCCO3)ccn1` [Compound 676]: the Emax is over 200% and the EC1.5 entry was “B (EC1.5 1-25 μM)”.
The matching figures for `CN(C)Cc1cccc(-c2ccc3c(n2)N(C(=O)Nc2cccnc2)CC(C)(C)O3)c1` [Compound 677, 6-(3-((dimethylamino)methyl)phenyl)-2,2-dimethyl-N-(pyridin-3-yl)-2H-pyrido[3,2-b][1,4]oxazine-4(3H)-carboxamide]: over 200% and “B (EC1.5 1-25 μM)”.
On to `O=C(Nc1cccc(OC[C@H](O)CO)n1)N1CCCc2ccc(-c3cccc(F)c3)nc21` [Compound 679], for which the Emax was over 200% and the EC1.5 entry is listed as “A (EC1.5<1.0 μM)”.
The matching figures for `Cc1ccc(-c2ccc3c(n2)N(C(=O)Nc2nc(C)cs2)CCCO3)cn1` [Compound 680]: over 200% and “B (EC1.5 1-25 μM)”.
The matching figures for `Cc1ccc(-c2ccc3c(n2)N(C(=O)Nc2ccncn2)CCCO3)cn1` [Compound 681]: at most 200% and “C (EC1.5>25 μM)”.
The matching figures for `Cc1cc(-c2cccc(Cl)c2)nc2c1OCCN2C(=O)Nc1ccncn1` [Compound 685]: over 200% and “A (EC1.5<1.0 μM)”.
`Cc1cc(-c2cccc(Cl)c2)nc2c1OCCN2C(=O)Nc1ccncc1` [Compound 686]: the Emax was over 200% and the EC1.5 entry is given as “A (EC1.5<1.0 μM)”.
For `Cc1cc(-c2cccc(Cl)c2)nc2c1OCCN2C(=O)Nc1ccncc1F` [Compound 687] the same measures were over 200% and “A (EC1.5<1.0 μM)”.
The matching figures for `O=C(Nc1c(F)c(F)c(F)c(F)c1F)N1CCCOc2ccc(-c3cccc(C(F)(F)F)c3)nc21` [Compound 693]: at most 200% and “C (EC1.5>25 μM)”.
For `Cc1ccc(-c2ccc3c(n2)N(C(=O)Nc2cccc(OC[C@H](O)CO)n2)CCO3)cn1` [Compound 694] the same measures were over 200% and “B (EC1.5 1-25 μM)”.
Consider `Cc1cc(OCC(O)CO)nc(NC(=O)N2CCOc3ccc(-c4cccc(C(F)(F)F)c4)nc32)n1` (stereo not drawn) [Compound 698], for which the EC1.5 (concentration giving 1.5-fold activation) was in the range of 1 to 25 µM and the Emax is at most 200%.
The matching figures for `O=C(Nc1cccc(OC[C@H](O)CO)n1)N1CCCc2ccc(-c3ccc4c(c3)CCO4)nc21` [Compound 702]: under 1 µM and over 200%.
For `Cc1nc(NC(=O)N2CCCOc3ccc(-c4cccc(Cl)c4)nc32)sc1C` [Compound 703] the same measures were under 1 µM and over 200%.
For `Cc1cnc(NC(=O)N2CCCOc3ccc(-c4cccc(Cl)c4)nc32)s1` [Compound 704] the same measures were 1 to 25 µM and at most 200%.
For the molecule `Cn1ccc(NC(=O)N2CCCOc3ccc(-c4cccc(Cl)c4)nc32)n1` [Compound 705], the EC1.5 (concentration giving 1.5-fold activation) was in the range of 1 to 25 µM and the Emax was over 200%.
For `Cn1nccc1NC(=O)N1CCCOc2ccc(-c3cccc(Cl)c3)nc21` [Compound 706] the same measures were over 25 µM and at most 200%.
For `Cn1cc(NC(=O)N2CCCOc3ccc(-c4cccc(Cl)c4)nc32)cn1` [Compound 708] the same measures were 1 to 25 µM and over 200%.
In the case of `Cc1csc(NC(=O)N2CCOc3cnc(-c4cccc(C(F)(F)F)c4)nc32)n1` [Compound 709, N-(4-methylthiazol-2-yl)-2-(3-(trifluoromethyl)phenyl)-6H-pyrimido[5,4-b][1,4]oxazine-8(7H)-carboxamide], the EC1.5 (concentration giving 1.5-fold activation) was over 25 µM and the Emax is at most 200%.
For `Cc1cc(C)nc(NC(=O)N2CCOc3cnc(-c4cccc(C(F)(F)F)c4)nc32)c1` [Compound 712], the EC1.5 (concentration giving 1.5-fold activation) is over 25 µM and the Emax was at most 200%.
For `O=C(Nc1ccncn1)N1CCOc2cnc(-c3cccc(C(F)(F)F)c3)nc21` [Compound 714], the EC1.5 (concentration giving 1.5-fold activation) was in the range of 1 to 25 µM and the Emax is at most 200%.
For `O=C(Nc1ccncc1)N1CCOc2cnc(-c3cccc(C(F)(F)F)c3)nc21` [Compound 715] the same measures were 1 to 25 µM and at most 200%.
For `O=C(Nc1ccncc1F)N1CCOc2cnc(-c3cccc(C(F)(F)F)c3)nc21` [Compound 716] the same measures were 1 to 25 µM and over 200%.
For `Cc1cc(NC(=O)N2CCOc3c(N4CCCC4)nc(-c4cccc(F)c4)nc32)cc(C)n1` [Compound 718] the same measures were 1 to 25 µM and at most 200%.
`O=C1CCN(C(=O)Nc2ccncc2)c2nc(-c3cccc(C(F)(F)F)c3)ccc21` [Compound 719, 4-oxo-N-(pyridin-4-yl)-7-(3-(trifluoromethyl)phenyl)-3,4-dihydro-1,8-naphthyridine-1(2H)-carboxamide]: the EC1.5 (concentration giving 1.5-fold activation) was 1 to 25 µM and the Emax is over 200%.
Regarding `O=C(Nc1ccncc1)N1CCOc2cnc(-c3cccc(Cl)c3)nc21` [Compound 720], the EC1.5 (concentration giving 1.5-fold activation) fell in the range of 1 to 25 µM and the Emax was at most 200%.
For `O=C(Nc1ccncc1)N1CCOc2cnc(-c3cccc(N4CCOCC4)c3)nc21` [Compound 721] the same measures were 1 to 25 µM and over 200%.
For `O=C(Nc1ccncc1)N1CCOc2cnc(-c3cccc(N4CCCC4)c3)nc21` [Compound 722] the same measures were 1 to 25 µM and over 200%.
For `O=C(Nc1ccncc1)N1CCOc2ncc(-c3cccc(C(F)(F)F)c3)nc21` [Compound 723] the same measures were 1 to 25 µM and at most 200%.
Turning to `O=C(Nc1ccncc1F)N1CCOc2ncc(-c3cccc(C(F)(F)F)c3)nc21` [Compound 724], the EC1.5 (concentration giving 1.5-fold activation) lay in the range of 1 to 25 µM and the Emax is over 200%.
The matching figures for `Cc1cncc(NC(=O)N2CCOc3ncc(-c4cccc(C(F)(F)F)c4)nc32)c1` [Compound 725]: 1 to 25 µM and over 200%.
On to `Cc1cc(NC(=O)N2CCOc3ncc(-c4cccc(C(F)(F)F)c4)nc32)cc(C)n1` [Compound 726], for which the EC1.5 (concentration giving 1.5-fold activation) is under 1 µM and the Emax was over 200%.
On to `Cc1cc(NC(=O)N2CCOc3c(N(C)C)nc(-c4cccc(F)c4)nc32)cc(C)n1` [Compound 727], for which the EC1.5 (concentration giving 1.5-fold activation) was under 1 µM and the Emax was at most 200%.
The matching figures for `O=C(Nc1ccncc1)N1CCCCc2ccc(-c3cccc(Cl)c3)nc21` [Compound 728, 2-(3-chlorophenyl)-N-(pyridin-4-yl)-7,8-dihydro-5H-pyrido[2,3-b]azepine-9(6H)-carboxamide]: 1 to 25 µM and over 200%.
For `O=C1CCN(C(=O)Nc2ccccn2)c2nc(-c3cccc(C(F)(F)F)c3)ccc21` [Compound 729] the same measures were 1 to 25 µM and over 200%.
The matching figures for `O=C1CCN(C(=O)Nc2ccc(F)cn2)c2nc(-c3cccc(C(F)(F)F)c3)ccc21` [Compound 730]: 1 to 25 µM and at most 200%.
With `O=C(Nc1ccnc(OC[C@H](O)CO)n1)N1CCOc2ccc(-c3cccc(C(F)(F)F)c3)nc21` [Compound 731], the EC1.5 (concentration giving 1.5-fold activation) is over 25 µM and the Emax was at most 200%.
Consider `O=C(Nc1ccnc(OC[C@@H](O)CO)n1)N1CCOc2ccc(-c3cccc(C(F)(F)F)c3)nc21` [Compound 732], for which the EC1.5 (concentration giving 1.5-fold activation) is over 25 µM and the Emax was at most 200%.
For `Cc1cccc(NC(=O)N2CCCCc3ccc(-c4cccc(Cl)c4)nc32)n1` [Compound 733] the same measures were over 25 µM and at most 200%.
The matching figures for `O=C(Nc1ccncc1F)N1CCCCc2ccc(-c3cccc(Cl)c3)nc21` [Compound 734]: 1 to 25 µM and over 200%.
For `O=C(Nc1ccc(F)cn1)N1CCCCc2ccc(-c3cccc(Cl)c3)nc21` [Compound 735] the same measures were over 25 µM and at most 200%.
For the molecule `CN(C)c1nc(-c2cccc(F)c2)nc2c1OCCN2C(=O)Nc1ccncc1` [Compound 736, 4-(dimethylamino)-2-(3-fluorophenyl)-N-(pyridin-4-yl)-6H-pyrimido[5,4-b][1,4]oxazine-8(7H)-carboxamide], the EC1.5 (concentration giving 1.5-fold activation) is over 25 µM and the Emax was at most 200%.
